Results on three compounds are retold here after US20100047907A1, “METHODS OF TRANSPORTING EPITHELIAL CELL MONOLAYERS” (Absorption System Group LLC, priority 2008, published 2010).

The target of data set [1] is T1, PGP (Homo sapiens, UniProt P08183). In words: Bidirectional digoxin Pgp transport across Caco-2 monolayers. Particulars: Caco-2, pH 7.4. In general terms: Caco-2 cells form a polarised layer with tight junctions and transporters.
Data set [2] has as its system P-gp. The data set is described as follows: Bidirectional digoxin Pgp transport across MDR-MDCK monolayers. Particulars: human, MDCK-MDR1, pH 7.4, Pgp transport.
The subject of data set [3] is human P-glycoprotein (PGP). The description is as above. Particulars: dog, MDCK-MDR1, pH 7.4, Pgp transport; for Papp A→B at 2 h, 10 µM / Papp B→A at 2 h, 10 µM: assayed day 12.
Data set [4] has as its system P-gp. In words: Bidirectional digoxin Pgp transport across MDCK monolayers. The conditions noted are these: dog, MDCK-MDR1, pH 7.4, Pgp transport.
Data set [5] addresses T2, P-glycoprotein (PGP) (Homo sapiens, UniProt P08183). The data set is described as follows: in vitro. Particulars: Caco-2, pH 7.4, Pgp transport.
For data set [6], the target named is T2, P-glycoprotein (PGP). In words: Bidirectional digoxin Pgp transport across C2BBe1 monolayers. The conditions noted are these: Caco-2, pH 7.4.
For data set [7], the target named is T1, PGP. In words: in vitro. Particulars: Caco-2, pH 7.4, Pgp transport.
In the next data set the target is P-gp (PGP) (Homo sapiens, UniProt P08183). In words: in vitro. The conditions noted are these: Caco-2, pH 7.4, Pgp transport, Papp B->A.
A short description of a further data set: in vitro. Particulars: human, Caco-2, pH 7.4, Passive diffusion.
The next data set deals with Caco-2 cell monolayers. The data set is described as follows: Sodium butyrate supplementation of medium of Caco-2 monolayers, 7-day culture procedure, simulated transport. In kind it is cell-based, human. The method, then:
Caco-2 cells were used to assess whether cells grown using the 7-day culture procure were likely to yield intact cell monolayers following shipment. To shorten the period required for cell monolayer formation the seeding density for each Transwell® insert was increased to 240,000 cells per cm^2 (rather than 60,000 cells/cm^2). Once plated, the cells were incubated overnight at 37° C. with 0.5 mL of medium (90% Dulbecco's Modified Eagle Medium supplemented with 10% fetal bovine serum) in the apical chamber and 1.5 mL of medium in the basolateral chamber to allow for attachment to the Transwell®. Adherent cells were provided with fresh cell culture medium for the next two days. The cells were then left on a laboratory bench, at room temperature, overnight to simulate transport conditions. In order to simulate receipt of transported cells, the next day the Transwell® inserts were removed from tissue culture plates containing 0.75% agarose medium and moved to a new plate containing fresh tissue culture medium. The cell monolayers were then incubated for 3 or 6 days under normal growth conditions before they were tested for membrane integrity and permeability. […]

The mark [8] stands for this setting: Table 10 control, assayed day 12.
The mark [9] stands for this setting: Table 13 MDR1-MDCK control, 7 d in culture.
Where [10] appears, read: Table 13 MDR1-MDCK shipped overnight by air, 0.75% agarose medium basolateral only, 10 d in culture.
[11] abbreviates: air cargo shipped (three days in transit), 0.75% agarose media basolateral only, assayed day 12.
[12] abbreviates: Table 5 control, not shipped, assayed 7 D.
[13] abbreviates: Table 6 shipped at 5 D, 0.5% agarose medium basolateral only, assayed 10 D.
The mark [14] stands for this setting: Table 7 shipped at day 6, 0.5% agarose medium basolateral only.
Setting [15] is: shipped, 0.5% agarose medium apical only, Table 5 lower block c1, assayed 7 D.
Setting [16] is: shipped, 0.5% agarose medium apical only, Table 5 lower block c2, assayed 7 D.
[17] abbreviates: shipped, 0.5% agarose medium apical only, Table 5 upper block c1, assayed 7 D.
[18] abbreviates: shipped, 0.5% agarose medium apical only, Table 5 upper block c2, assayed 7 D.
The mark [19] stands for this setting: shipped, 0.5% agarose medium apical only, Table 5 upper block c4, assayed 7 D.
Setting [20] is: shipped, 0.5% agarose medium basolateral only, assayed 7 D.
The mark [21] stands for this setting: Table 9 control, assayed day 10.
Setting [22] is: Table 9 shipped, 0.75% agarose media basolateral only, assayed day 10.
Where [23] appears, read: Table 12 control, 7 d in culture.
Setting [24] is: Table 12 shipped overnight by air, 0.75% agarose medium basolateral only, 9 d in culture.

T1 sequence (P08183 whole entry): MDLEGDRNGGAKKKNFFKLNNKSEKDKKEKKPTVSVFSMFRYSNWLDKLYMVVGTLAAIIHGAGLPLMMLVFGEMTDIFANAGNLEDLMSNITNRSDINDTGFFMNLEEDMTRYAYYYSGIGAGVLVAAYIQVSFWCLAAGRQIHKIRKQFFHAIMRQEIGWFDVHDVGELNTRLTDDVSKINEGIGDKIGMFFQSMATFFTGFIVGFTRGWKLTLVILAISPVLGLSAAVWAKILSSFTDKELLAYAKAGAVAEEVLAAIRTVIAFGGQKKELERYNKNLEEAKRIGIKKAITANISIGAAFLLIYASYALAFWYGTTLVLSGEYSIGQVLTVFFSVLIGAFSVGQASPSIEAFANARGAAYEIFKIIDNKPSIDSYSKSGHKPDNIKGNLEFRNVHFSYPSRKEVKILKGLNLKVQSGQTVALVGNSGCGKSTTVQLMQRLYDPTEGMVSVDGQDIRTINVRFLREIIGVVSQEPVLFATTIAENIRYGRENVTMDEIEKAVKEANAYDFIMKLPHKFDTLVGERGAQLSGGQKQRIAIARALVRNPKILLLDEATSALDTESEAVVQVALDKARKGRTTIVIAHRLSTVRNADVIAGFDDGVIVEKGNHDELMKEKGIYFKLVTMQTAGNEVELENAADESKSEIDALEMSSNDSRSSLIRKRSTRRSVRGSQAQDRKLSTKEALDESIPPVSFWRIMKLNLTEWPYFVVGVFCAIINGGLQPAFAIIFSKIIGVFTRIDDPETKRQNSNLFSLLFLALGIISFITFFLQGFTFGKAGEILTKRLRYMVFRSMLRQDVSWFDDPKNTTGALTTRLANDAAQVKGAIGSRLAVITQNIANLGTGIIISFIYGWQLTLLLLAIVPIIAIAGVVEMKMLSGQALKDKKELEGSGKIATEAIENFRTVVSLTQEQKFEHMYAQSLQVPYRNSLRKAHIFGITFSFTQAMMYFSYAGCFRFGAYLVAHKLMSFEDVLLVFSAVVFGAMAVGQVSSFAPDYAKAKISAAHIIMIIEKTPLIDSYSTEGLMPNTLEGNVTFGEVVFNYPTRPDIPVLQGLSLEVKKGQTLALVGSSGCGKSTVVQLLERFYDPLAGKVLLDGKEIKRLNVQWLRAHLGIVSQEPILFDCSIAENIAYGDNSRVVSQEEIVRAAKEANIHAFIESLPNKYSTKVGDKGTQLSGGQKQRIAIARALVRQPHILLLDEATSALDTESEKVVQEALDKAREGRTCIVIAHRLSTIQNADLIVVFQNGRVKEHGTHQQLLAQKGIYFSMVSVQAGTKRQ
T2 sequence (P08183 whole entry): as above
P-gp (PGP), sequence (P08183 whole entry, the tested form may be a part): as the sequence (P08183 whole entry) above

Regarding `C[C@H]1O[C@@H](O[C@H]2[C@@H](O)C[C@H](O[C@H]3[C@@H](O)C[C@H](O[C@H]4CC[C@@]5(C)[C@H](CC[C@@H]6[C@@H]5C[C@@H](O)[C@]5(C)[C@@H](C7=CC(=O)OC7)CC[C@]65O)C4)O[C@@H]3C)O[C@@H]2C)C[C@H](O)[C@@H]1O` [Digoxin, digoxin], the Papp A→B (commonly how fast a substance crosses the layer from the apical side) at 120 min, 10 µM at PGP [1] came to 0.66 ×10⁻⁶ cm/s; in [3] (setting [12]) it was 0.1 ×10⁻⁶ cm/s; in data set [3] (Table 6 control, assayed 10 D), 0.15 ×10⁻⁶ cm/s; in data set [3] (setting [13]) it was 0.21 ×10⁻⁶ cm/s; in data set [3] (setting [15]) it was 0.18 ×10⁻⁶ cm/s; in data set [3] (setting [16]), 0.09 ×10⁻⁶ cm/s. Further, the apparent permeability from apical to basolateral (Papp A→B) at 120 min, 10 µM in [3] (setting [17]) amounted to 0.11 ×10⁻⁶ cm/s; in data set [3] (setting [18]) it was 0.06 ×10⁻⁶ cm/s; in data set [3] (setting [19]), 0.07 ×10⁻⁶ cm/s; in data set [3] (setting [20]), 0.06 ×10⁻⁶ cm/s. The Papp A→B at 2 h, 10 µM in the data set on P-gp [2] (setting [8]) turned out to be 0.04 ×10⁻⁶ cm/s; with P-gp [2] (setting [9]), 0.02 ×10⁻⁶ cm/s; with P-gp [2] (setting [10]), 0.09 ×10⁻⁶ cm/s; in the data set on P-gp [2] (setting [11]), 0.07 ×10⁻⁶ cm/s; in [3] (Table 7 control) it was 0.15 ×10⁻⁶ cm/s; in data set [3] (setting [14]) it was 0.09 ×10⁻⁶ cm/s. Also, the Papp A→B at 2 h, 10 µM was 0.2 ×10⁻⁶ cm/s in the data set with P-gp [4] (setting [21]); 0.04 ×10⁻⁶ cm/s in the data set with P-gp [4] (setting [22]); 0.12 ×10⁻⁶ cm/s in the data set with P-gp [4] (setting [23]); 0.16 ×10⁻⁶ cm/s with P-gp [4] (setting [24]); 1.13 ×10⁻⁶ cm/s on PGP [7] (Papp A->B). The Papp B→A – broadly, the apparent permeability from the basolateral to the apical side of a cell layer – at 2 h, 10 µM worked out at 10.9 ×10⁻⁶ cm/s in the data set on P-gp [2] (setting [8]); 12.6 ×10⁻⁶ cm/s with P-gp [2] (setting [9]); 20.1 ×10⁻⁶ cm/s in the data set on P-gp [2] (setting [10]); 13.1 ×10⁻⁶ cm/s in the data set on P-gp [2] (setting [11]); 6.37 ×10⁻⁶ cm/s in [3] (Table 7 control); 6.4 ×10⁻⁶ cm/s in [3] (setting [14]). For the same compound, the Papp B→A at 2 h, 10 µM with P-gp [4] (setting [21]) was 0.94 ×10⁻⁶ cm/s; in the data set on P-gp [4] (setting [22]), 3.83 ×10⁻⁶ cm/s; in the data set with P-gp [4] (setting [23]), 6.92 ×10⁻⁶ cm/s; in the data set on P-gp [4] (setting [24]) it was 7.44 ×10⁻⁶ cm/s; at P-glycoprotein (PGP) [5] it was 6.86 ×10⁻⁶ cm/s; on P-glycoprotein (PGP) [6], 5.67 ×10⁻⁶ cm/s. The apparent permeability from basolateral to apical (Papp B→A) at 2 h, 10 µM on PGP [7] (Papp B->A) is 15.2 ×10⁻⁶ cm/s. For the same compound, the Papp B→A at 120 min, 10 µM came to 6.7 ×10⁻⁶ cm/s in data set [3] (setting [12]); 10.8 ×10⁻⁶ cm/s in data set [3] (Table 6 control, assayed 10 D); 9.14 ×10⁻⁶ cm/s in data set [3] (setting [13]); 7.05 ×10⁻⁶ cm/s in [3] (setting [15]); 8.27 ×10⁻⁶ cm/s in data set [3] (setting [16]); 5.24 ×10⁻⁶ cm/s in data set [3] (setting [17]). Further, the apparent permeability from basolateral to apical (Papp B→A) at 120 min, 10 µM in data set [3] (setting [18]) turned out to be 6.19 ×10⁻⁶ cm/s; in data set [3] (shipped, 0.5% agarose medium apical only, Table 5 upper block c3, assayed 7 D) it was 4.65 ×10⁻⁶ cm/s; in data set [3] (setting [19]) it was 6.39 ×10⁻⁶ cm/s; in data set [3] (setting [20]), 6.09 ×10⁻⁶ cm/s; at PGP [7] (Papp B->A) it was 21.6 ×10⁻⁶ cm/s; at P-gp (PGP) it was 21.9 ×10⁻⁶ cm/s.

On to `CC(C)NCC(O)COc1cccc2[nH]ccc12` (stereo not shown) [Pindolol, pindolol], for which the apparent permeability from apical to basolateral (Papp A→B) at 2 h in the data set “in vitro” came to 14.2 ×10⁻⁶ cm/s.

Turning to `CCCC(=O)[O-].[Na+]` [sodium butyrate], the “effect on cell monolayer integrity and permeability following transport” value in the data set on Caco-2 cell monolayers (4 mM in medium for three days prior to simulated transport, not following transport) is “adversely affects monolayer integrity and permeability following transport”. The “effect on cell monolayer integrity or permeability” value in the data set with Caco-2 cell monolayers (added to tissue culture medium following simulated transport, not prior to transport) is listed as “does not disrupt cell monolayer integrity or permeability”.
